Bridge positions count the residues as written; N and C are the ends. Square brackets hold non-standard residues; d marks the D form. Ends that are not written are not given here. cellulose = not defined here; βAla = NCCC(=O)O
Legend:
Format in all cases: binding
Design in all cases: key: No binding of immunoglobulin for the defined peptide variant, detection negative: 0; Binding of immunoglobulin for the defined peptide variant, detection positive: +
[1] = system: immunoglobulins in human plasma; test: Cellulose-immobilized 13-mer peptide variants incubated with human plasma, anti-human IgG-AP detection; conditions: human plasma as sample, diluted 1:10,000 in blocking buffer, 3 h room temperature
How it was run: (§1)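 SPOT-type 13-mer peptides on cellulose with a (βA)(βA) spacer, blocked in 5% saccharose/4% BSA in T-TBS pH 8.0. Incubated 3 h at RT with human IgG-Fc (1 μg/ml) or human serum/plasma (1:10,000), or with blocking buffer alone as the albumin specificity control. Bound IgG detected with AP-anti-human IgG (1.2 μg/ml) and NBT/BCIP colorimetric development at pH 9.5.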

[2] = system: human IgG-Fc; test: Cellulose-immobilized 13-mer peptide variants incubated with human IgG-Fc, anti-human IgG-AP detection; conditions: IgG-Fc 1 μg/ml in blocking buffer, 3 h room temperature
How it was run: as §1

[3] = system: serum albumin; test: Cellulose-immobilized 13-mer peptide variants incubated with serum albumin (negative control), anti-human IgG-AP detection; conditions: blocking buffer without addition, 3 h room temperature
How it was run: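 Read-out was colorimetric NBT/BCIP staining (developing buffer pH 9.5) after alkaline phosphatase-conjugated anti-human IgG at 1.2 μg/ml. Before this, the immobilized peptides had been incubated 3 h at room temperature with 1 μg/ml IgG-Fc, 1:10,000 diluted serum, or albumin-containing blocking buffer without addition.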

Row | Substance | Result for incubation with human plasma (immunoglobulin binding detection) [1] | Result for incubation with human IgG-Fc (immunoglobulin binding detection) [2] | Result for incubation with serum albumin (immunoglobulin binding detection) [3]
1 | 09G: cellulose-bound 13-mer variant DCAWHLGEGVWCT-(βA)(βA) (DCAWHLGEGVWCT-{βAla-βAla-cellulose}; disulfide 2-12 (inferred); reading uncertain; also: printed as DCAWHLGEGVWCT-(βA)(βA)) | 0 | 0 | 0
2 | 11C: cellulose-bound 13-mer variant DCAWHLGELVCCT-(βA)(βA) (DCAWHLGELVCCT-{βAla-βAla-cellulose}; not fully specified (bridges); printed as DCAWHLGELVCCT-(βA)(βA); cysteine pairing not given here; reading uncertain) | 0 | 0 | 0
3 | 02V: cellulose-bound 13-mer variant DVAWHLGELVWCT-(βA)(βA) (DVAWHLGELVWCT[βAla][βAla]; not fully specified; printed as DVAWHLGELVWCT-(βA)(βA); also: cellulose-bound) | 0 | 0 | 0
4 | 06A: cellulose-bound 13-mer variant DCAWHAGELVWCT-(βA)(βA) (DCAWHAGELVWCT[βAla][βAla]; disulfide 2-12 (inferred); not fully specified (N-terminus); printed as DCAWHAGELVWCT-(βA)(βA); also: cellulose-bound) | 0 | + | 0
5 | 04A: cellulose-bound 13-mer variant DCAAHLGELVWCT-(βA)(βA) (DCAAHLGELVWCT-{βAla-βAla-cellulose}; disulfide 2-12 (inferred); reading uncertain; also: printed as DCAAHLGELVWCT-(βA)(βA)) | 0 | 0 | 0
6 | 02F: cellulose-bound 13-mer variant DFAWHLGELVWCT-(βA)(βA) (DFAWHLGELVWCT[βAla][βAla]; not fully specified; printed as DFAWHLGELVWCT-(βA)(βA); also: cellulose-bound) | 0 | 0 | 0
7 | 10Y: cellulose-bound 13-mer variant DCAWHLGELYWCT-(βA)(βA) (DCAWHLGELYWCT-{βAla-βAla-cellulose}; disulfide 2-12 (inferred); reading uncertain; also: printed as DCAWHLGELYWCT-(βA)(βA)) | 0 | 0 | 0
8 | 09Y: cellulose-bound 13-mer variant DCAWHLGEYVWCT-(βA)(βA) (DCAWHLGEYVWCT-{βAla-βAla-cellulose}; disulfide 2-12 (inferred); reading uncertain; also: printed as DCAWHLGEYVWCT-(βA)(βA)) | 0 | 0 | 0
9 | 08L: cellulose-bound 13-mer variant DCAWHLGLLVWCT-(βA)(βA) (DCAWHLGLLVWCT-{βAla-βAla-cellulose}; disulfide 2-12 (inferred); not fully specified (N-terminus); printed as DCAWHLGLLVWCT-(βA)(βA); reading uncertain) | 0 | 0 | 0
10 | 07R: cellulose-bound 13-mer variant DCAWHLRELVWCT-(βA)(βA) (DCAWHLRELVWCT-{βAla-βAla-cellulose}; disulfide 2-12 (inferred); not fully specified (N-terminus); printed as DCAWHLRELVWCT-(βA)(βA); reading uncertain) | 0 | 0 | 0
11 | 02H: cellulose-bound 13-mer variant DHAWHLGELVWCT-(βA)(βA) (DHAWHLGELVWCT[βAla][βAla]; not fully specified; printed as DHAWHLGELVWCT-(βA)(βA); also: cellulose-bound) | 0 | 0 | 0
12 | 04E: cellulose-bound 13-mer variant DCAEHLGELVWCT-(βA)(βA) (DCAEHLGELVWCT[βAla][βAla]; disulfide 2-12 (inferred); also: cellulose-bound) | + | + | 0
13 | 04S: cellulose-bound 13-mer variant DCASHLGELVWCT-(βA)(βA) (disulfide 2-12 (inferred); not fully specified (N-terminus, C-terminus); printed as DCASHLGELVWCT-(βA)(βA); also: cellulose-bound) | + | + | 0
14 | 04Q: cellulose-bound 13-mer variant DCAQHLGELVWCT-(βA)(βA) (disulfide 2-12 (inferred); not fully specified (N-terminus, C-terminus); printed as DCAQHLGELVWCT-(βA)(βA); also: cellulose-bound) | 0 | + | 0
15 | 05E: cellulose-bound 13-mer variant DCAWELGELVWCT-(βA)(βA) (disulfide 2-12 (inferred); not fully specified (N-terminus, C-terminus); printed as DCAWELGELVWCT-(βA)(βA); also: cellulose-bound) | 0 | 0 | 0
